Reference: article PMC10838102 (Journal of Experimental Pharmacology, 2024)

Tests used:
[1] = with piperine; cited from earlier work
[2] = concurrent administration of 2 g of curcumin and 5 mg of piperine; cited from earlier work
[3] = tested on: Caco-2 cell monolayer; assay: Caco-2 cell monolayer permeability assay with LC-MS/MS analysis; conditions: 2-hour permeability experiment

Row | SMILES | increase of bioavailability of curcumin [1] | increase in curcumin's bioavailability [2] | Papp classification [3]
1 | COc1cc(/C=C/C(=O)CC(=O)/C=C/c2ccc(O)c(OC)c2)ccc1O [curcumin] | 20 folds | approximately a twofold increase | 
2 | CC(C)NCC(O)COc1cccc2ccccc12 (stereo not drawn) [propranolol] |  |  | high
